Structures are written as SMILES.

As a reminder, the IC50 is the concentration needed to halve the response being measured.

This assay is described as follows: Inhibition of 1-monooleoyl glycerol (MOG) induced beta-hematin formation.
On to `CC(C)CN(CCCN1CCN(CCCNc2ccnc3cc(Cl)ccc23)CC1)CC(C)C` [7-chloro-N-(3-(4-(3-(diisobutylamino)propyl)piperazin-1-yl)propyl)quinolin-4-amine], for which 43.4 µM corresponded to half-maximal inhibition (IC50).
As for `CC(C)CN(CCCN1CCN(CCCNc2nc3ccccc3[nH]2)CC1)CC(C)C` [(1H-Benzoimidazol-2-yl)-{3-[4-(3-diisobutylamino-propyl)-piperazin-1-yl]-propyl}-amine], the IC50 amounted to 63.6 µM.
`CC(C)CN(CCCN1CCN(CCCNc2cnccn2)CC1)CC(C)C` [{3-[4-(3-Diisobutylamino-propyl)-piperazin-1-yl]-propyl}-pyrazin-2-yl-amine]: the IC50 was more than 200 µM.
Under `CC(C)CN(CCCN1CCN(CCCNc2ccnc3ccccc23)CC1)CC(C)C` [{3-[4-(3-Diisobutylamino-propyl)-piperazin-1-yl]-propyl}-quinolin-4-yl-amine] stands 62.3 µM.
Then `CC(C)CN(CCCN1CCN(CCCNCc2ccncc2)CC1)CC(C)C` [Diisobutyl-[3-(4-{3-[(pyridin-4-ylmethyl)-amino]-propyl}-piperazin-1-yl)-propyl]-amine], with more than 200 µM.
Then `CC(C)CN(CCCN1CCN(CCCNc2nc3ccccc3o2)CC1)CC(C)C` [Benzooxazol-2-yl-{3-[4-(3-diisobutylamino-propyl)-piperazin-1-yl]-propyl}-amine], with more than 200 µM.

(Values after BindingDB's records for doi:10.1016/j.bmcl.2003.07.008 (University of Lille, 2003).)
